Data taken from US10794897B2, “System and methods for predicting drug-induced inotropic and pro-arrhythmia risk” (AnaBios Corporation, priority 2017, dated 2020).
Read-outs that look alike come from different tables or passages of the source.

Assays:
[1] = tested on: human cardiomyocyte preparation; conditions: for concentration from which ACs were induced: human
[2] = tested on: ex vivo human ventricular trabeculae preparation; experiment: ex vivo human ventricular trabeculae force of contraction
[3] = tested on: human cardiomyocyte preparation; experiment: human cardiomyocyte contractility transients (system 20 validation with reference drugs); conditions: human cardiomyocytes
[4] = tested on: ex vivo human ventricular trabeculae preparation

Question: `CN(CCOc1ccc(NS(C)(=O)=O)cc1)CCc1ccc(NS(C)(=O)=O)cc1` [dofetilide] was tested. Which sarcomere shortening [1] did it give?
Answer: Its sarcomere shortening is “no effects”.

Question: And the “concentration from which ACs were induced” value [1]?
Answer: Its value is 10 -fold the fETPC.

Question: And the “MAC (maximum amplitude of force of contraction)” value ([2]; human ventricular trabeculae)?
Answer: The value was “no effects”.

Question: What about the TR90 ([2]; human ventricular trabeculae) of the same compound?
Answer: Its TR90 is “concentration-dependent increase”.

Question: And the AC incidence ([2]; human ventricular trabeculae, starting at the fETPC)?
Answer: Its AC incidence is “observed starting at the fETPC”.

Question: What does the source list for `CC[C@H]1OC(=O)[C@H](C)[C@@H](O[C@H]2C[C@@](C)(OC)[C@@H](O)[C@H](C)O2)[C@H](C)[C@@H](O[C@@H]2O[C@H](C)C[C@H](N(C)C)[C@H]2O)[C@](C)(OC)C[C@@H](C)C(=O)[C@H](C)[C@@H](O)[C@]1(C)O` [clarithromycin]?
Answer: sarcomere shortening [1]: inhibited; concentration from which ACs were induced [1]: 10 -fold the fETPC

Question: `Cc1cccc(C)c1OCC(C)N` (stereo not shown) [mexiletine] was tested. Which AC incidence [1] did it give?
Answer: Its AC incidence is “induced no ACs”.

Question: What about the sarcomere shortening [1] of the same compound?
Answer: Its sarcomere shortening is “inhibited”.

Question: Which results are given for `C[C@@H]1CC(=O)NN=C1c1ccc(NN=C(C#N)C#N)cc1` [levosimendan]?
Answer: AC incidence ([3]; at 10-fold the fETPC): levosimendan did; CE incidence ([3]; positive inotropes): no CE incidence; FSF ([3]; positive inotropes): increased; TR90 ([3]; positive inotropes): no effect; maximum contraction velocity ([3]; positive inotropes): increased; maximum contraction velocity time ([3]; positive inotropes): no effect; maximum relaxation velocity ([3]; positive inotropes): increased; maximum relaxation velocity time ([3]; positive inotropes): no effects; peak height ([3]; positive inotropes): increased; time to 10% peak ([3]; positive inotropes): no effect; time to 50% peak ([3]; positive inotropes): no effect; time to peak ([3]; positive inotropes): no effects

Question: `COc1ccc(CCN(C)CCCC(C#N)(c2ccc(OC)c(OC)c2)C(C)C)cc1OC` (stereo not shown) [verapamil] was tested. Which IC50 ([2]; Homo sapiens, read-out: IC50 for decrease of MAC) did it give?
Answer: The IC50 was 1460 nM.

Question: And the AC incidence ([3]; up to 222-fold the fETPC)?
Answer: Its AC incidence is “neither AC or CE incidence”.

Question: What about the CE incidence ([3]; up to 222-fold the fETPC) of the same compound?
Answer: The CE incidence was “neither AC or CE incidence”.

Question: And the TR90 ([3]; up to 222-fold the fETPC)?
Answer: The TR90 was “no change”.

Question: For `C=C[C@H]1C[N@@]2CC[C@H]1C[C@@H]2[C@@H](O)c1ccnc2ccc(OC)cc12` [quinidine], which “AC (after-contraction) incidence” value [1] is on record?
Answer: The value was “concentration-dependent increases”.

Question: And the “CE (contractility escape) incidence” value [1]?
Answer: Its value is “concentration-dependent increases”.

Question: And the “TR90 (time to 90% relaxation)” value [1]?
Answer: Its value is “prolongation”.

Question: For `COc1cc(N)c(Cl)cc1C(=O)NC1CCN(CCCOc2ccc(F)cc2)CC1OC` (stereo not shown) [cisapride], which “AC (after-contraction) incidence” value [1] is on record?
Answer: The value was “seen starting at the fETPC”.

Question: What about the sarcomere shortening [1] of the same compound?
Answer: Its sarcomere shortening is “inhibited”.

Question: `CC(C)NCC(O)c1ccc(NS(C)(=O)=O)cc1` (racemic) [sotalol, d,l-sotalol] was tested. Which sarcomere shortening [1] did it give?
Answer: Its sarcomere shortening is “no effects”.

Question: And the “concentration from which ACs were induced” value [1]?
Answer: The value was 10 -fold the fETPC.

Question: And the TR90 [4]?
Answer: The TR90 was “concentration-dependent increase”.

Question: Which AC incidence [1] does the source give for `CC(C)NCC(O)c1ccc(O)c(O)c1` (stereo not shown) [isoproterenol] here?
Answer: Its AC incidence is “induced no AC”.

Question: What about the CE incidence [1] of the same compound?
Answer: Its CE incidence is “no CE incidence”.

Question: What about the TR90 [1] of the same compound?
Answer: Its TR90 is “decreased”.

Question: What about the AC incidence [4] of the same compound?
Answer: Its AC incidence is “did not induce any ACs”.

Question: And the TR90 [4]?
Answer: The TR90 was “decrease”.

Question: And the “increase of MAC” value ([2]; human ventricular trabeculae, at 0.03 μM)?
Answer: The value was 315%.

Question: What about the FSF ([3]; positive inotropes) of the same compound?
Answer: The FSF was “increased”.

Question: And the maximum contraction velocity ([3]; positive inotropes)?
Answer: The maximum contraction velocity was “increased”.

Question: And the “maximum contraction velocity time” value ([3]; positive inotropes)?
Answer: The value was “increased”.

Question: And the maximum relaxation velocity ([3]; positive inotropes)?
Answer: The maximum relaxation velocity was “increased”.

Question: What about the “maximum relaxation velocity time” value ([3]; positive inotropes) of the same compound?
Answer: Its value is “no effects”.

Question: And the peak height ([3]; positive inotropes)?
Answer: The peak height was “increased”.

Question: What about the “time to 10% peak” value ([3]; positive inotropes) of the same compound?
Answer: Its value is “decreased”.

Question: What about the “time to 50% peak” value ([3]; positive inotropes) of the same compound?
Answer: The value was “decreased”.

Question: And the time to peak ([3]; positive inotropes)?
Answer: Its time to peak is “no effects”.

Question: What does the source list for `O=c1[nH]c2ccccc2n1CCCN1CCC(n2c(=O)[nH]c3cc(Cl)ccc32)CC1` [domperidone]?
Answer: AC (after-contraction) incidence [1]: seen starting at the fETPC; sarcomere shortening [1]: inhibited

Question: Which AC incidence [1] does the source give for `COc1ccccc1OCC(O)CN1CCN(CC(=O)Nc2c(C)cccc2C)CC1` (stereo not shown) [ranolazine] here?
Answer: The AC incidence was “induced no ACs”.

Question: What about the sarcomere shortening [1] of the same compound?
Answer: Its sarcomere shortening is “inhibited”.
